Patent US9650390B2, “Water-soluble taxane derivatives and uses thereof” (priority 2014, dated 2017)

Assays:
[1] = In vitro dissociation in blood plasma of rat; assay type: in vitro ADME, SD rats; details: fresh SD rat plasma, 37° C.; for Sampling time/Dissociation percent (%) 2 min: 2 min incubation; for Sampling time/Dissociation percent (%) 5 min: 5 min incubation; for Sampling time/Dissociation percent (%) 10 min: 10 min incubation
Procedure: The obtained water soluble taxane derivatives of the following formulae were formulated as 0.2 mg/ml aqueous solutions. […] After 2 min, 5 min and 10 min of incubation, 0.2 ml of solutions were respectively taken from each of the samples, and added to acetonitrile (0.4 ml) cooled to −20° C. for precipitation of protein.

[2] = In vitro dissociation in blood plasma of rabbit; assay type: in vitro ADME, New Zealand white rabbits; details: fresh New Zealand white rabbit plasma, 37° C.
Procedure: The obtained water soluble taxane derivatives of the following formulae were formulated as 0.2 mg/ml aqueous solutions. […]

[3] = test system: human ovarian cancer SK-OV-3; details: 24 mg/kg, D0-4 IV; for Body weight change (%) D4: nude mice; for T/C (%) D22 / Tumor volume (mm^3) (D0) / Tumor volume (mm^3) (D22) / Tumor inhibitory percent (%) D22: SK-OV-3 xenograft in nude mice; for Tumor volume (mm^3) (D0): baseline at grouping (D0); for Tumor inhibitory percent (%) D22: P = 0.000 vs control
Excerpt: Purpose: to evaluate and compare the inhibitory activity of the water soluble paclitaxel derivatives, paclitaxel and Abraxane® on subcutaneously xenografted tumor of human ovarian cancer SK-OV-3 in nude mice.
Human ovarian cancer SK-OV-3 cells were subcutaneously inoculated to nude mice. After the tumor volume reached 100-150 mm^3, the animals were randomly divided into groups (D0), and administered with the water soluble paclitaxel derivatives of the following formula, paclitaxel, and Abraxane®, respectively once per day for 5 days. The tumor volume was measured 2-3 times per week, the animals were weighed and the data were recorded until day 22 (D22) after grouping.
(§1) The tumor volume (V) was calculated according to the equation: V=½×a×b^2, wherein a and b represent the length and the width, respectively.
T/C (%)=(T−T0)/(C−C0)×100, wherein T and C represent the tumor volume at the end of the experiment, and T0 and C0 represent the tumor volume at the beginning of the experiment.

[4] = test system: human prostate cancer PC-3; assay: Inhibitory activity of docetaxel derivatives on subcutaneously xenografted tumor PC-3 in nude mice; assay type: in vivo; details: 33.6 mg/kg, D0 IV; for T/C (%) D20 / Tumor inhibitory percent (%) D20 / Tumor volume (mm^3) (D0) / Tumor volume (mm^3) (D20): PC-3 xenograft in nude mice; for Tumor inhibitory percent (%) D20: P = 0.000 vs control; for Tumor volume (mm^3) (D0): baseline at grouping (D0); for Weight change (%) D6: nude mice
Excerpt: Purpose: to evaluate and compare the inhibitory activity of the water soluble docetaxel derivatives and docetaxel on subcutaneously xenografted tumor of human prostate cancer PC-3 in nude mice
Human prostate cancer PC-3 cells were subcutaneously inoculated into nude mice. After the tumor volume reached 100-150 mm^3, the animals were randomly divided into several groups, and administered with the water soluble docetaxel derivatives of the following formula and docetaxel, respectively once on the same day (D0). The tumor volume was measured 2-3 times per week, the animals were weighed and the data were recorded until day 20 (D20) after grouping.
as §1
T/C (%)=(T−T0)/(C−C0)×100, wherein T and C represent the tumor volume at the end of the experiment; and T0 and C0 represent the tumor volume at the beginning of the experiment.

| Compound | Sampling time/Dissociation percent (%) 2 min [1] [%] | Sampling time/Dissociation percent (%) 5 min [1] [%] | Sampling time/Dissociation percent (%) 10 min [1] [%] | Sampling time/Dissociation percent (%) 2 min [2] [%] | Sampling time/Dissociation percent (%) 5 min [2] [%] | Sampling time/Dissociation percent (%) 10 min [2] [%] | Body weight change (%) D4 [3] [%] | T/C (%) D22 [3] [%] | Tumor volume (mm^3) (D0) [3] | Tumor volume (mm^3) (D22) [3] | T/C (%) D20 [4] [%] | Tumor inhibitory percent (%) D20 [4] [%] | Tumor volume (mm^3) (D0) [4] | Tumor volume (mm^3) (D20) [4] | Weight change (%) D6 [4] [%] | Tumor inhibitory percent (%) D22 [3] [%] |
| --- | --- | --- | --- | --- | --- | --- | --- | --- | --- | --- | --- | --- | --- | --- | --- | --- |
| CC(=O)O[C@H]1C(=O)[C@@]2(C)[C@H]([C@H](OC(=O)c3ccccc3)[C@]3(O)C[C@H](OC(=O)[C@H](OC(=O)[C@H](F)CCN(C)C)[C@@H](NC(=O)c4ccccc4)c4ccccc4)C(C)=C1C3(C)C)[C@]1(OC(C)=O)CO[C@@H]1C[C@@H]2O.CS(=O)(=O)O [Compound C1, 2′-O-[4-N,N-dimethylamino-2(R)-fluorobutyryl]paclitaxel methanesulfonate] | 64.3 | 97.0 | 100 | 77.2 | 98.4 | 100 | −5.9 | −63 | 133.6 ± 9.5 | – | – | – | – | – | – | – |
| CC(=O)O[C@H]1C(=O)[C@@]2(C)[C@H]([C@H](OC(=O)c3ccccc3)[C@]3(O)C[C@H](OC(=O)[C@H](OC(=O)[C@@H](F)CCN(C)C)[C@@H](NC(=O)c4ccccc4)c4ccccc4)C(C)=C1C3(C)C)[C@]1(OC(C)=O)CO[C@@H]1C[C@@H]2O.CS(=O)(=O)O [Compound C2, 2′-O-[4-N,N-dimethylamino-2(S)-fluorobutyryl]paclitaxel methanesulfonate] | 62.8 | 96.5 | 100 | 69.7 | 98.1 | 100 | −5.8 | −61 | – | 51.2 ± 11.2 | – | – | – | – | – | – |
| CC(=O)O[C@H]1C(=O)[C@@]2(C)[C@H]([C@H](OC(=O)c3ccccc3)[C@]3(O)C[C@H](OC(=O)[C@H](OC(=O)C(F)CCN(C)C)[C@@H](NC(=O)c4ccccc4)c4ccccc4)C(C)=C1C3(C)C)[C@]1(OC(C)=O)CO[C@@H]1C[C@@H]2O.CS(=O)(=O)O (stereo partly drawn) [Compound C3, 2′-O-[4-N,N-dimethylamino-2(R,S)-fluorobutyryl]paclitaxel methanesulfonate] | 63.7 | 96.8 | 100 | 76.5 | 94.6 | 100 | −6.0 | −64 | – | 50.6 ± 9.7 | – | – | – | – | – | – |
| CC(=O)O[C@@]12CO[C@@H]1C[C@H](O)[C@@]1(C)C(=O)[C@H](O)C3=C(C)[C@@H](OC(=O)[C@H](OC(=O)[C@H](F)CCN(C)C)[C@@H](NC(=O)OC(C)(C)C)c4ccccc4)C[C@@](O)([C@@H](OC(=O)c4ccccc4)[C@H]21)C3(C)C.CS(=O)(=O)O [Compound C4, 2′-O-[4-N,N-dimethylamino-2(R)-fluorobutyryl]docetaxel methanesulfonate] | 59.2 | 93.4 | 100 | 81.6 | 94.8 | 100 | – | – | – | – | −77 | 177 | 113.7 ± 2.9 | – | – | – |
| CC(=O)O[C@@]12CO[C@@H]1C[C@H](O)[C@@]1(C)C(=O)[C@H](O)C3=C(C)[C@@H](OC(=O)[C@H](OC(=O)[C@@H](F)CCN(C)C)[C@@H](NC(=O)OC(C)(C)C)c4ccccc4)C[C@@](O)([C@@H](OC(=O)c4ccccc4)[C@H]21)C3(C)C.CS(=O)(=O)O [Compound C5, 2′-O-[4-N,N-dimethylamino-2(S)-fluorobutyryl]docetaxel methanesulfonate] | 58.9 | 93.3 | 100 | 81.2 | 93.1 | 100 | – | – | – | – | −76 | 175 | 113.4 ± 3.1 | 26.8 ± 12.6 | – | – |
| CC(=O)O[C@@]12CO[C@@H]1C[C@H](O)[C@@]1(C)C(=O)[C@H](O)C3=C(C)[C@@H](OC(=O)[C@H](OC(=O)C(F)CCN(C)C)[C@@H](NC(=O)OC(C)(C)C)c4ccccc4)C[C@@](O)([C@@H](OC(=O)c4ccccc4)[C@H]21)C3(C)C.CS(=O)(=O)O (stereo partly drawn) [Compound C6, 2′-O-[4-N,N-dimethylamino-2(R,S)-fluorobutyryl]docetaxel methanesulfonate] | 59.1 | 93.3 | 100 | 76.8 | 97.8 | 100 | – | – | – | – | −76 | 175 | 113.8 ± 3.0 | 27.0 ± 12.3 | −12.6 | – |
| CCN(C)CC[C@@H](F)C(=O)O[C@@H](C(=O)O[C@H]1C[C@@]2(O)[C@@H](OC(=O)c3ccccc3)[C@@H]3[C@]4(OC(C)=O)CO[C@@H]4C[C@H](O)[C@@]3(C)C(=O)[C@H](OC(C)=O)C(=C1C)C2(C)C)[C@@H](NC(=O)c1ccccc1)c1ccccc1.CS(=O)(=O)O [Compound C18, 2′-O-[4-N-methyl-N-ethylamino-2(R)-fluorobutyryl]paclitaxel methanesulfonate] | – | – | – | – | – | – | −7.0 | −53 | 133.6 ± 9.4 | 55.7 ± 10.6 | – | – | – | – | – | – |
| CCN(CC)CC[C@H](F)C(=O)O[C@@H](C(=O)O[C@H]1C[C@@]2(O)[C@@H](OC(=O)c3ccccc3)[C@@H]3[C@]4(OC(C)=O)CO[C@@H]4C[C@H](O)[C@@]3(C)C(=O)[C@H](OC(C)=O)C(=C1C)C2(C)C)[C@@H](NC(=O)c1ccccc1)c1ccccc1.O=C(O)/C=C/C(=O)O [Compound C19, 2′-O-[4-N,N-diethylamino-2(S)-fluorobutyryl]paclitaxel fumarate] | – | – | – | – | – | – | −8.1 | −44 | 133.6 ± 9.4 | 55.7 ± 10.1 | – | – | – | – | – | – |
| CC(=O)O[C@H]1C(=O)[C@@]2(C)[C@H]([C@H](OC(=O)c3ccccc3)[C@]3(O)C[C@H](OC(=O)[C@H](OC(=O)C(F)CCN(C)C(C)C)[C@@H](NC(=O)c4ccccc4)c4ccccc4)C(C)=C1C3(C)C)[C@]1(OC(C)=O)CO[C@@H]1C[C@@H]2O.Cl (stereo partly drawn) [Compound C20, 2′-O-[4-N-methyl-N-isopropylamino-2(R,S)-fluorobutyryl]paclitaxel hydrochloride] | – | – | – | – | – | – | −10.3 | −38 | 127.9 ± 11.4 | 60.4 ± 12.3 | – | – | – | – | – | 98 |
| CC(=O)OC1C(=O)C2(C)C(O)CC3OCC3(OC(C)=O)C2C(OC(=O)c2ccccc2)C2(O)CC(OC(=O)C(OC(=O)C(CCN(C)C)C(F)(F)F)C(NC(=O)c3ccccc3)c3ccccc3)C(C)=C1C2(C)C.Cc1ccc(S(=O)(=O)O)cc1 [Compound C21, 2′-O-[4-N,N-dimethylamino-2(R,S)-2-trifluoromethylbutyryl]paclitaxel p-toluene sulfonate] | – | – | – | – | – | – | −8.9 | −48 | 134.9 ± 11.4 | 57.3 ± 11.4 | – | – | – | – | – | – |
| CC(=O)O[C@H]1C(=O)[C@@]2(C)[C@H]([C@H](OC(=O)c3ccccc3)[C@]3(O)C[C@H](OC(=O)[C@H](OC(=O)C(CCN(C)C)C(F)F)[C@@H](NC(=O)c4ccccc4)c4ccccc4)C(C)=C1C3(C)C)[C@]1(OC(C)=O)CO[C@@H]1C[C@@H]2O.Cl (stereo partly drawn) [Compound C22, 2′-O-[4-N,N-dimethylamino-2(R,S)-2-difluoromethylbutyryl]paclitaxel hydrochloride] | – | – | – | – | – | – | −8.4 | −35 | 133.4 ± 12.6 | 61.2 ± 13.5 | – | – | – | – | – | 135 |
| CC(=O)OC1C(=O)C2(C)C(O)CC3OCC3(OC(C)=O)C2C(OC(=O)c2ccccc2)C2(O)CC(OC(=O)C(OC(=O)C(F)CC(C)N(C)C)C(NC(=O)c3ccccc3)c3ccccc3)C(C)=C1C2(C)C.O=C(O)C=CC(=O)O [Compound C23, 2′-O-[4-N,N-dimethylamino-2(R)-fluorovaleryl]paclitaxel maleate] | – | – | – | – | – | – | −9.4 | −23 | 135.8 ± 14.7 | 70.8 ± 16.8 | – | – | – | – | – | 60 |
| CC(=O)O[C@@]12CO[C@@H]1C[C@H](O)[C@@]1(C)C(=O)[C@H](O)C3=C(C)[C@@H](OC(=O)[C@H](OC(=O)C(CCN(C)C)C(F)F)[C@@H](NC(=O)OC(C)(C)C)c4ccccc4)C[C@@](O)([C@@H](OC(=O)c4ccccc4)[C@H]21)C3(C)C.Cl (stereo partly drawn) [Compound C29, 2′-O-[4-N,N-dimethylamino-2(R,S)-2-difluoromethylbutyryl]docetaxel hydrochloride] | – | – | – | – | – | – | – | – | – | – | −37 | 85 | 116.7 ± 3.1 | 36.8 ± 13.4 | −15.1 | – |
